DC50 and Dmax data for 16 compounds are collected here from US20250114345A1, “COMPOUNDS AND COMPOSITIONS AS CBP/P300 DEGRADERS AND USES THEREOF” (Oncopia Therapeutics, Inc. d/b/a/ SK Life Science Labs, priority 2023, published 2025).

Structures are written as SMILES.

Assay [1] concerns the target T1, CBP (Homo sapiens, UniProt Q92793).
T1 construct: host or cells: A549 CBP HiBit cells
Nature of the assay: CBP degradation, HiBit technology in A549 CBP HiBit cells (24 h). The format is cell-based. Conditions: 24 hrs post treatment. In short, it runs like this: (§1)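 Degradation potency and Dmax came from luminescence after 10 min room-temperature lysis with HiBit detection buffer. Beforehand, HiBit-tagged A549 lines received serial compound dilutions (10 mM DMSO stocks) at 37 °C, 5% CO2. CBP cells were read at 24 h, p300 cells at 2 h.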
For orientation: With HiBiT, luminescence reflects the tagged protein that the partner subunit can reach.

Assay [2] deals with T2, p300 (Homo sapiens, UniProt Q09472).
T2 construct: host or cells: A549 P300 HiBit cells
T2 sequence (Q09472 whole entry): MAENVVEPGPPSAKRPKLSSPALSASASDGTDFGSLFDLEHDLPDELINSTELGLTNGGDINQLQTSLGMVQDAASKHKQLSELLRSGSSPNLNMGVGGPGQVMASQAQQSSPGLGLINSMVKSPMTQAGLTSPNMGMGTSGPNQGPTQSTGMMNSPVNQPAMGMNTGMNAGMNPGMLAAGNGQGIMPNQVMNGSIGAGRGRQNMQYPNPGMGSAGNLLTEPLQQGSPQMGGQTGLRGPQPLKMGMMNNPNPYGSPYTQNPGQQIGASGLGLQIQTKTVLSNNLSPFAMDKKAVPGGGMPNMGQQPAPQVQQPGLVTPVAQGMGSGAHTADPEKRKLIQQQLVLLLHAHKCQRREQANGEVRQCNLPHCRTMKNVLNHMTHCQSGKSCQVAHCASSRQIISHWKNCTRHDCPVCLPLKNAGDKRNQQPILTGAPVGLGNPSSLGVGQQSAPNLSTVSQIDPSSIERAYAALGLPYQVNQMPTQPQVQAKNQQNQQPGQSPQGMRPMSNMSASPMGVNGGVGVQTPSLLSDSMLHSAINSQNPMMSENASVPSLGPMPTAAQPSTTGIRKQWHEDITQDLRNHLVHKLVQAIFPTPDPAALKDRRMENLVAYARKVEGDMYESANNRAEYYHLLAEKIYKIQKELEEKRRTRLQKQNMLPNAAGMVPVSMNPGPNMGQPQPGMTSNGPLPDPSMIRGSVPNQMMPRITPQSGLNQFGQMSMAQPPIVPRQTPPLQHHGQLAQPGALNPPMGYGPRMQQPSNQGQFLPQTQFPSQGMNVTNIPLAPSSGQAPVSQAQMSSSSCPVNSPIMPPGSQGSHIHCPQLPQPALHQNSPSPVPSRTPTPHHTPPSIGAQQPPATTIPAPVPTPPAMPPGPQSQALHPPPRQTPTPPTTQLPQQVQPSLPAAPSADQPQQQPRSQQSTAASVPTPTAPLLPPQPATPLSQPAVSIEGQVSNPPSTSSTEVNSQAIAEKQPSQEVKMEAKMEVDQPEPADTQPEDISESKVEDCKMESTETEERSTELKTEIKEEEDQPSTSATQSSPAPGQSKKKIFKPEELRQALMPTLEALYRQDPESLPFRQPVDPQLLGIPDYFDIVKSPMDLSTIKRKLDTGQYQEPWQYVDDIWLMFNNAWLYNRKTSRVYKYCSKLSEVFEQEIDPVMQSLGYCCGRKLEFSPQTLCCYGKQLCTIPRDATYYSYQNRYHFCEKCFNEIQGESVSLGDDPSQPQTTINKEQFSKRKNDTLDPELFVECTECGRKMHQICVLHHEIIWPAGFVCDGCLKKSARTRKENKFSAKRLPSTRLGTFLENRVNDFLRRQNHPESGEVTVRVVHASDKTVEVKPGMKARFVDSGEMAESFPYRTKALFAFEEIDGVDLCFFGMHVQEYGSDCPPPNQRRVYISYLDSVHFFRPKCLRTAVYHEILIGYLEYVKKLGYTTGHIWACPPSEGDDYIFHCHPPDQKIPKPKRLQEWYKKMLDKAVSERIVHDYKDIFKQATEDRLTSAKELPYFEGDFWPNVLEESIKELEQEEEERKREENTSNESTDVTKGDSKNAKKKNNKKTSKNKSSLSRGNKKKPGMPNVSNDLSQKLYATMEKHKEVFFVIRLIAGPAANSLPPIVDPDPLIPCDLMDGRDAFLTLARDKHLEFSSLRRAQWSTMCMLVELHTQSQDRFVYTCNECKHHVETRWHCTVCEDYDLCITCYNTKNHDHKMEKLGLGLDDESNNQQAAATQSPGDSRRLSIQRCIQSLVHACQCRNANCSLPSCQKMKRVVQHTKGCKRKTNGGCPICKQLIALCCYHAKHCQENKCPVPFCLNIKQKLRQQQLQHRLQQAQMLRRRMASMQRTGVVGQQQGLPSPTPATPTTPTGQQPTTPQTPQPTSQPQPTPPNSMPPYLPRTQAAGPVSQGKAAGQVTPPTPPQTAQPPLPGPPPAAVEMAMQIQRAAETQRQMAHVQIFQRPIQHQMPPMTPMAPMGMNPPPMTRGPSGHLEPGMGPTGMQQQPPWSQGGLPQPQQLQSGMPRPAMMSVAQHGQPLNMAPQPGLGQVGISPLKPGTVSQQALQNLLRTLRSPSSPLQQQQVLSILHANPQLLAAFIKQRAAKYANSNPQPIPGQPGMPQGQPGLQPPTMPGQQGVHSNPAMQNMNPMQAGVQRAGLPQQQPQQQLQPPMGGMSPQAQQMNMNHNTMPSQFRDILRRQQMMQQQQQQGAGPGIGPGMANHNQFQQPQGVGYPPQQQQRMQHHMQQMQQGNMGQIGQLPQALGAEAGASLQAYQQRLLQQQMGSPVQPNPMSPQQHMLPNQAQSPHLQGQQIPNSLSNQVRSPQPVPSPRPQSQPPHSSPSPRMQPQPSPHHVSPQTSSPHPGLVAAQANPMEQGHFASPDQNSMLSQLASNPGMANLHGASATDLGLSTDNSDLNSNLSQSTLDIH
The assay can be described thus: P300 degradation, HiBit technology in A549 P300 HiBit cells (2 h). As to conditions: 2 hrs post treatment; for Dmax: A549, A549 P300 HiBit cells; for DC50: A549 P300 HiBit cells. The class given is cell-based. In short, it runs like this: as §1

T1 sequence (Q92793 whole entry): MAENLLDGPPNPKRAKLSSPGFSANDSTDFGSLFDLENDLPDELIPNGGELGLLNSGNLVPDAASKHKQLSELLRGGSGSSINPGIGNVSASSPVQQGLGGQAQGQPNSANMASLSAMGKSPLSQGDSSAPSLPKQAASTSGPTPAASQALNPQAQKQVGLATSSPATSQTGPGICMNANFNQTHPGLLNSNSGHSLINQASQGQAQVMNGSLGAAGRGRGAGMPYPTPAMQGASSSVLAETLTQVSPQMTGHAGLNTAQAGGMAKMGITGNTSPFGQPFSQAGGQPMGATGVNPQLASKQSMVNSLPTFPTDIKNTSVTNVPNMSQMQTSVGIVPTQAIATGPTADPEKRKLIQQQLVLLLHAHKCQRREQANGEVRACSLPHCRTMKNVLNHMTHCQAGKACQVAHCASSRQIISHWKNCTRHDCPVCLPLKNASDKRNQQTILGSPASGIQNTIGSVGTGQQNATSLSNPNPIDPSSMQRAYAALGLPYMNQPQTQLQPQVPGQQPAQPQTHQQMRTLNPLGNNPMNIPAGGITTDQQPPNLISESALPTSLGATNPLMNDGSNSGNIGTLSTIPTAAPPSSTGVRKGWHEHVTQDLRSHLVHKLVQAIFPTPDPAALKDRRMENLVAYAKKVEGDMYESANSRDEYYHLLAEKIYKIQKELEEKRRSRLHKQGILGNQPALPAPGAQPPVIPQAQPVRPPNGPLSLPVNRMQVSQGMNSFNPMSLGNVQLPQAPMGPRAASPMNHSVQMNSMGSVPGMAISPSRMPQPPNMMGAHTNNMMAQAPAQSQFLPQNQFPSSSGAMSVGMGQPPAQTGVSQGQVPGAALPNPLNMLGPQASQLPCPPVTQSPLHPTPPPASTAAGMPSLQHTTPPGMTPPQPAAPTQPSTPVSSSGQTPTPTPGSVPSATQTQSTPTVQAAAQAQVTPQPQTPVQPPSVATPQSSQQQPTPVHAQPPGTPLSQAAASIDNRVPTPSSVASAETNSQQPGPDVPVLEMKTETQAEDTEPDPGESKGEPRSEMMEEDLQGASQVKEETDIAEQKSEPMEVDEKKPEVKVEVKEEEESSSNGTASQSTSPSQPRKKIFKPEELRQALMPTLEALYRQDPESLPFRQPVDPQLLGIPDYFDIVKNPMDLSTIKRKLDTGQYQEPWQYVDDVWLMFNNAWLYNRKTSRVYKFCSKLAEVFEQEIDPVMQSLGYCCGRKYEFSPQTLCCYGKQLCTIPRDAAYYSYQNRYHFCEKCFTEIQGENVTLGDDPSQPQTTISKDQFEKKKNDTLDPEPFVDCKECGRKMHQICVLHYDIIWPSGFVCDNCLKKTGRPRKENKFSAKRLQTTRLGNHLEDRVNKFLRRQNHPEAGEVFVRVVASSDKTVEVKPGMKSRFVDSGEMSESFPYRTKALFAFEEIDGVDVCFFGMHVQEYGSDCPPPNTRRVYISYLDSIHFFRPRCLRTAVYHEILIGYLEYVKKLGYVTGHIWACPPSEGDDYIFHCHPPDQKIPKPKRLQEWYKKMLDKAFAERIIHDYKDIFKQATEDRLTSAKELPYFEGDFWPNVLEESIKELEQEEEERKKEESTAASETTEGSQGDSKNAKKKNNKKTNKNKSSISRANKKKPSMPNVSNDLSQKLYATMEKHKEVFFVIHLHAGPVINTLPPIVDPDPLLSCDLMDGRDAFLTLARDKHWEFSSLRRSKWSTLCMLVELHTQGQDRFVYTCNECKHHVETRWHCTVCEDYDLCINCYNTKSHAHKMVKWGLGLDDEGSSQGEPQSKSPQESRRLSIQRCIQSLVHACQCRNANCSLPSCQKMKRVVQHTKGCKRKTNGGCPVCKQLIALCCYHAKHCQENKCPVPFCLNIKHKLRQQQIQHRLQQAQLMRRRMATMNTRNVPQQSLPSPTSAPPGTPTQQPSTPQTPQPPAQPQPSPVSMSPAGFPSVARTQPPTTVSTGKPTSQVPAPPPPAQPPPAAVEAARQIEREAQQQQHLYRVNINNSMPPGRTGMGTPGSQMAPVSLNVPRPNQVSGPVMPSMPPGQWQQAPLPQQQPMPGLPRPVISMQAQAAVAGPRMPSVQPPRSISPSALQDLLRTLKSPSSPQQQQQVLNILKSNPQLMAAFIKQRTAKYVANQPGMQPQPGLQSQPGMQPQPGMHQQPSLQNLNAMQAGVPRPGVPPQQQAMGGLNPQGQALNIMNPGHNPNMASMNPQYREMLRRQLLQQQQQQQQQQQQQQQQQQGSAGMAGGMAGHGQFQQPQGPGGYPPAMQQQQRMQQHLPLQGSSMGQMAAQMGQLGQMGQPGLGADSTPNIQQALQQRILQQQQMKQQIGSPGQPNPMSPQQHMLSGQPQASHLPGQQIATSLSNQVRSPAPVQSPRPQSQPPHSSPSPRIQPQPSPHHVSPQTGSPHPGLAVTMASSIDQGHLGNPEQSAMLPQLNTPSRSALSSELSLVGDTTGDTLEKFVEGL

As to `Cc1cc2c(N3CCCc4nc(-c5ccc(C(=O)NCC#Cc6cc7c(C8CCC(=O)NC8=O)nccc7o6)nc5)ncc43)cc(C(C)C)cc2n(C)c1=O` (stereo not shown) [Example B157, N-(3-(4-(2,6-dioxopiperidin-3-yl)furo[3,2-c]pyridin-2-yl)prop-2-yn-1-yl)-5-(5-(7-isopropyl-1,3-dimethyl-2-oxo-1,2-dihydroquinolin-5-yl)-5,6,7,8-tetrahydropyrido[3,2-d]pyrimidin-2-yl) picolinamide], the DC50 (commonly the concentration at which degradation of the target reaches its halfway point) in assay [1] lay in the range of 10 to 99 nM; in assay [2], 1 to 9.9 nM. For the same compound, the Dmax (in general, the greatest extent of degradation seen) in assay [1] was 20 to 39%; in assay [2] it was above 80%.
With `Cc1cc2c(N3CCOc4cc(-c5ccc(C(=O)NCC#Cc6ccc7occ(C8CCC(=O)NC8=O)c7c6)nc5)ncc43)cccc2n(C)c1=O` (stereo not shown) [Example B77, 5-(4-(1,3-dimethyl-2-oxo-1,2-dihydroquinolin-5-yl)-3,4-dihydro-2H-pyrido[4,3-b][1,4]oxazin-7-yl)-N-(3-(3-(2,6-dioxopiperidin-3-yl)benzofuran-5-yl)prop-2-yn-1-yl)picolinamide], the values for the DC50 in assay [1] and in assay [2] were above 1000 nM and 1 to 9.9 nM, respectively. For the same compound, the Dmax in assay [1] is below 20%; in assay [2], above 80%.
The like results for `CN1CCN(c2ccc3c(c2)n(C)c(=O)n3C)c2cnc(-c3ccc(C(=O)NCC#Cc4ccc5occ(C6CCC(=O)NC6=O)c5c4)nc3)nc21` (stereo not shown) [Example A122, 5-(5-(1,3-dimethyl-2-oxo-2,3-dihydro-1H-benzo[d]imidazol-5-yl)-8-methyl-5,6,7,8-tetrahydropteridin-2-yl)-N-(3-(3-(2,6-dioxopiperidin-3-yl)benzofuran-5-yl)prop-2-yn-1-yl)picolinamide] were, in that order, above 1000 nM, below 1 nM, below 20% and above 80%.
In assay [1], `Cc1cc2c(-c3cn(C)c(=O)c4cc(-c5ccc(C(=O)NCC#Cc6cc7c(C8CCC(=O)NC8=O)cccc7o6)nc5)ncc34)nc(N3CCOCC3)cc2n(C)c1=O` (stereo not shown) [Example B131, 5-(8-(1,3-dimethyl-7-morpholino-2-oxo-1,2-dihydro-1,6-naphthyridin-5-yl)-6-methyl-5-oxo-5,6-dihydro-2,6-naphthyridin-3-yl)-N-(3-(4-(2,6-dioxopiperidin-3-yl)benzofuran-2-yl)prop-2-yn-1-yl)picolinamide] yielded a DC50 above 1000 nM and a Dmax below 20%. Moreover, in assay [2], the Dmax was above 80% and the DC50 was 1 to 9.9 nM.
For the compound `CCc1cc(-c2cccc3cc(-c4ccc(C(=O)NCC#Cc5ccc6ncn(C7CCC(=O)NC7=O)c6c5)nc4)ncc23)c2cc(C)c(=O)n(C)c2c1` (stereo not shown) [Example B2, N-(3-(1-(2,6-Dioxopiperidin-3-yl)-1H-benzo[d]imidazol-6-yl)prop-2-yn-1-yl)-5-(8-(7-ethyl-1,3-dimethyl-2-oxo-1,2-dihydroquinolin-5-yl)isoquinolin-3-yl)picolinamide], the DC50 was above 1000 nM in assay [1] and 1 to 9.9 nM in assay [2]. For the same compound, the Dmax was below 20% in assay [1] and 60 to 79% in assay [2].
In assay [1], `Cc1cc2c(N3CCOc4cc(-c5ccc(C(=O)NCC#Cc6ccc7occ(C8CCC(=O)NC8=O)c7c6)nc5)c(F)cc43)cc(N3CC(C)(O)C3)cc2n(C)c1=O` (stereo not shown) [Example B63, N-(3-(3-(2,6-dioxopiperidin-3-yl)benzofuran-5-yl)prop-2-yn-1-yl)-5-(6-fluoro-4-(7-(3-hydroxy-3-methylazetidin-1-yl)-1,3-dimethyl-2-oxo-1,2-dihydroquinolin-5-yl)-3,4-dihydro-2H-benzo[b][1,4]oxazin-7-yl) picolinamide] showed a DC50 of 10 to 99 nM and a Dmax of 20 to 39%. In assay [2], this compound came in with a Dmax above 80% and a DC50 of 1 to 9.9 nM.
For `Cc1cc(-c2ncc(N(C)c3cc(C(C)C)c4c(c3)n(C)c(=O)n4C)cn2)cnc1C(=O)NCC#Cc1cccc(NC2CCC(=O)NC2=O)c1` (stereo not shown) [Example A51, N-(3-(3-((2,6-dioxopiperidin-3-yl)amino)phenyl)prop-2-yn-1-yl)-5-(5-((7-isopropyl-1,3-dimethyl-2-oxo-2,3-dihydro-1H-benzo [d]imidazol-5-yl)(methyl)amino)pyrimidin-2-yl)-3-methylpicolinamide], in that order: above 1000 nM, below 20%, above 80% and 1 to 9.9 nM.
As for `CCc1cc(-c2cccc3cc(-c4ccc(C(=O)NCC#Cc5cc(NC6CCC(=O)NC6=O)nn5C)nc4)ncc23)c2cc(C)c(=O)n(C)c2c1` (stereo not shown) [Example B7, N-(3-(3-((2,6-Dioxopiperidin-3-yl)amino)-1-methyl-1H-pyrazol-5-yl)prop-2-yn-1-yl)-5-(8-(7-ethyl-1,3-dimethyl-2-oxo-1,2-dihydroquinolin-5-yl)isoquinolin-3-yl)picolinamide], the DC50 in assay [1] was above 1000 nM; in assay [2], 1 to 9.9 nM. Moreover, the Dmax in assay [1] is below 20%; in assay [2], 20 to 39%.
In assay [1], `Cc1cc(-c2ncc(N(C)c3cc(C4CCOCC4)c4c(c3)n(C)c(=O)n4C)cn2)cnc1C(=O)NCC#Cc1ccc2occ([C@H]3CCC(=O)NC3=O)c2c1` [Example A54, (R)-5-(5-((1,3-dimethyl-2-oxo-7-(tetrahydro-2H-pyran-4-yl)-2,3-dihydro-1H-benzo[d]imidazol-5-yl)(methyl)amino)pyrimidin-2-yl)-N-(3-(3-(2,6-dioxopiperidin-3-yl)benzofuran-5-yl)prop-2-yn-1-yl)-3-methylpicolinamide] displayed a DC50 above 1000 nM and a Dmax below 20%. In assay [2], this compound showed a Dmax above 80% and a DC50 of 1 to 9.9 nM.
Consider `CC(C)c1cc(N2CCOc3cc(-c4ccc(C(=O)NCC#Cc5ccc6occ(C7CCC(=O)NC7=O)c6c5)nc4)ccc32)cc2c1n(C)c(=O)n2C` (stereo not shown) [Example A121, N-(3-(3-(2,6-dioxo-piperidin-3-yl)benzofuran-5-yl)prop-2-yn-1-yl)-5-(4-(7-isopropyl-1,3-dimethyl-2-oxo-2,3-dihydro-1H-benzo [d]imidazol-5-yl)-3,4-dihydro-2H-benzo [b][1,4]oxazin-7-yl)picolinamide], for which, in assay [1], the DC50 is above 1000 nM and the Dmax was below 20%. Besides, in assay [2], the Dmax lay within 60 to 79% and the DC50 lay in the range of 10 to 99 nM.
As to `Cc1cc(-c2cc3cccc(-c4cc(C(C)C)c5c(c4)n(C)c(=O)n5C)c3cn2)cnc1C(=O)NCC#Cc1ccc2c(c1)c(C1CCC(=O)NC1=O)nn2C` (stereo not shown) [Example A269, N-(3-(3-(2,6-dioxopiperidin-3-yl)-1-methyl-1H-indazol-5-yl)prop-2-yn-1-yl)-5-(8-(7-isopropyl-1,3-dimethyl-2-oxo-2,3-dihydro-1H-benzo[d]imidazol-5-yl)iso-quinolin-3-yl)-3-methylpicolinamide], in assay [1], the DC50 was 10 to 99 nM and the Dmax was above 80%. In assay [2], this compound came in with a Dmax above 80% and a DC50 of 1 to 9.9 nM.
Consider `[2H]C([2H])(C#Cc1ccc2occ(C3CCC(=O)NC3=O)c2c1)NC(=O)c1ccc(-c2ncc3c(n2)CCCN3c2cc(C3CCOCC3)cc3c2cc(C)c(=O)n3C)cn1` (stereo not shown) [Example B117, 5-(5-(1,3-dimethyl-2-oxo-7-(tetrahydro-2H-pyran-4-yl)-1,2-dihydroquinolin-5-yl)-5,6,7,8-tetrahydropyrido[3,2-d]pyrimidin-2-yl)-N-(3-(3-(2,6-dioxopiperidin-3-yl)benzofuran-5-yl)prop-2-yn-1-yl-1,1-d2)picolinamide], for which the DC50 is 100 to 999 nM in assay [1] and 1 to 9.9 nM in assay [2]. For the same compound, the Dmax in assay [1] is below 20%; in assay [2] it was above 80%.
The like results for `Cc1cc2c(N3CCCc4nc(-c5ccc(C(=O)NCC#Cc6ccc7occ(C8CCC(=O)NC8=O)c7c6)nc5)ncc43)cc(C3CCOCC3)nc2n(C)c1=O` (stereo not shown) [Example B76, 5-(5-(6,8-dimethyl-7-oxo-2-(tetrahydro-2H-pyran-4-yl)-7,8-dihydro-1,8-naphthyridin-4-yl)-5,6,7,8-tetrahydropyrido[3,2-d]pyrimidin-2-yl)-N-(3-(3-(2,6-dioxopiperidin-3-yl)benzofuran-5-yl)prop-2-yn-1-yl)picolinamide] were, in that order, 100 to 999 nM, 1 to 9.9 nM, below 20% and above 80%.
In assay [1], `Cc1cc2c(N3CCCc4nc(-c5ccc(C(=O)NCC#Cc6ccc7occ(C8CCC(=O)NC8=O)c7c6)nc5)ncc43)nc(N3CCOCC3)cc2n(C)c1=O` (stereo not shown) [Example B62, 5-(5-(1,3-dimethyl-7-morpholino-2-oxo-1,2-dihydro-1,6-naphthyridin-5-yl)-5,6,7,8-tetrahydropyrido[3,2-d]pyrimidin-2-yl)-N-(3-(3-(2,6-dioxopiperidin-3-yl)benzofuran-5-yl)prop-2-yn-1-yl)picolinamide] returned a DC50 above 1000 nM and a Dmax below 20%. Also, in assay [2], the Dmax is above 80% and the DC50 lay in the range of 1 to 9.9 nM.
As to `Cc1cc(-c2cc3cccc(-c4cnc5c(c4)n(C)c(=O)n5C)c3cn2)cnc1C(=O)NCC#Cc1cc2c(C3CCC(=O)NC3=O)cccc2o1` (stereo not shown) [Example A189, 5-(8-(1,3-dimethyl-2-oxo-2,3-dihydro-1H-imidazo[4,5-b]pyridin-6-yl)isoquinolin-3-yl)-N-(3-(4-(2,6-dioxopiperidin-3-yl)benzofuran-2-yl)prop-2-yn-1-yl)-3-methylpicolinamide], in assay [1], the DC50 was above 1000 nM and the Dmax was below 20%. In assay [2], the Dmax was above 80% and the DC50 is 1 to 9.9 nM.
Turning to `CC(C)c1cc(-c2cccc3cc(-c4ccc(C(=O)NCC#Cc5ccc6ncc(C7CCC(=O)NC7=O)n6c5)nc4)ncc23)cc2c1n(C)c(=O)n2C` (stereo not shown) [Example A25, N-(3-(3-(2,6-Dioxopiperidin-3-yl)imidazo[1,2-a]pyridin-6-yl)prop-2-yn-1-yl)-5-(8-(7-isopropyl-1,3-dimethyl-2-oxo-2,3-dihydro-1H-benzo[d]imidazol-5-yl)isoquinolin-3-yl)picolinamide], in assay [1], the DC50 is 100 to 999 nM and the Dmax was below 20%. Further, in assay [2], the Dmax was above 80% and the DC50 is below 1 nM.
